{
  "source": "EPA's ToxValDB 9.5 (doi:10.2903/j.efsa.2021.6237)",
  "key": {"[1]": {"tested_on": "Lepomis macrochirus", "conditions": "acute; duration: 96 hours; mortality"}, "[2]": {"tested_on": "Daphnia magna", "conditions": "chronic/long-term; duration: 21 days; reproduction"}, "[3]": {"tested_on": "Oncorhynchus mykiss", "conditions": "chronic/long-term; duration: 60 days; other"}, "[4]": {"tested_on": "Anas platyrhynchos", "conditions": "short-term; oral; feed; mortality"}, "[5]": {"tested_on": "Apis mellifera", "conditions": "acute, mortality"}, "[6]": {"tested_on": "Rattus norvegicus"}, "[7]": {"tested_on": "Tagia sp.", "conditions": "chronic/long-term; duration: 56 days; reproduction"}, "[8]": {"tested_on": "Colinus virginianus", "conditions": "acute; oral; mortality"}, "[9]": {"tested_on": "Canidae", "conditions": "subchronic; duration: 90 days; oral; Dog Other; clinical chemistry"}},
  "data": [
    {"smiles": "COP(=S)(OC)SCN1C(=O)c2ccccc2C1=O", "note": "[Phosmet]", "values": [
      {"measurement": "LD50", "setting": "[1]", "result": 19.7, "unit": "µg/L"},
      {"measurement": "NOEC", "setting": "[2]", "result": 0.78, "unit": "µg/L"},
      {"measurement": "NOEC", "setting": "[3]", "result": 3.2, "unit": "µg/L"},
      {"measurement": "LD50", "setting": "[4]", "result": "> 2320", "unit": "mg/kg-day"},
      {"measurement": "LD50", "setting": "[5]; dermal", "result": 0.22, "unit": "µg/piece"},
      {"measurement": "LD50", "setting": "[5]; oral, unspecified", "result": 0.302, "unit": "µg/piece"},
      {"measurement": "LD50", "setting": "[6]; acute, oral, mortality", "result": 113, "unit": "mg/kg-day"},
      {"measurement": "NOAEL", "setting": "[6]; chronic, duration: 2 years, clinical chemistry", "result": 1.8, "unit": "mg/kg-day"},
      {"measurement": "NOAEL", "setting": "[6]; developmental, development", "result": 10, "unit": "mg/kg-day"},
      {"measurement": "NOAEL", "setting": "[6]; reproduction developmental", "result": 1, "unit": "mg/kg-day"},
      {"measurement": "NOAEL", "setting": "[6]; subchronic, duration: 90 days, oral, clinical chemistry", "result": 1.88, "unit": "mg/kg-day"},
      {"measurement": "NOEC", "setting": "[7]", "result": 2.96, "unit": "mg/kg"},
      {"measurement": "LD50", "setting": "[8]", "result": 56.2, "unit": "mg/kg-day"},
      {"measurement": "NOAEL", "setting": "[9]", "result": 1.88, "unit": "mg/kg-day"}
    ]}
  ]
}
